Measured values from article PMC11333205, “Pyridylpiperazine-based carbodithioates as urease inhibitors: synthesis and biological evaluation” (Frontiers in Chemistry, 2024).
Read-outs that look alike come from different tables or passages of the source.

Assays:
urease [1] = molecular target: T1, urease (Canavalia ensiformis, UniProt P07374); test: biochemical; assay type: biochemical
Method: The inhibitory potential of the compounds was assessed using a slightly modified indophenol method ([Hina et al., 2023]). In 96-well plates, a mixture consisting of 50 µL urease, 30 µL buffer solution (phosphate buffer, sodium salicylate, sodium nitroprusside, and EDTA, pH 8.0), 10 µL urea substrate (100 mM), and 10 µL of the test compound (1 mM) was subjected to pre-incubation for 10 min at room temperature. Subsequently, an alkali reagent (70 µL) was promptly introduced into each well. Then, 30 min later, the absorbance at 630 nm for all samples was measured using a BioTek ELx800 instrument from BioTek Instruments, Inc., United States. The data were collected for all experiments performed in triplicate, and the percentage of inhibitory activities was assessed utilizing the following formula: Percentage of inhibition=100 – Absorbance of compound/Absorbance of control × 100.

urease [2] = molecular target: T1, urease; test: Kinetic study (Lineweaver–Burk / Michaelis–Menten) of urease inhibition; assay type: biochemical; conditions: Lineweaver–Burk plots; 5j at 0, 2.55, 5.11, 7.65 μM
Source text: By using Lineweaver–Burk graphs, we determined the mechanism of action of the leading compound 5j against urease. We evaluated the effect of the inhibitor on K m and V max using reciprocal 1/S and 1/V of the product concentration and calculated the inhibition type. The slope K m /V max of each line was schemed against different concentrations of the substrate and inhibitor. In kinetic studies of the potent compound, different concentrations of the compound and substrate were used. Different concentrations of 1 mM 5j were 0, 2.55, 5.11, and 7.65 μM, and different concentrations of the substrate were 0, 25, 50, 100, and 150 mM.
The type of inhibitory action was determined by using […] different concentrations of the substrate (0, 2.5, 5, 10, and 15 mM) in the absence and presence of different concentrations of inhibitor 5j (0, 2.55, 5.11, and 7.65 μM).

urease [3] = molecular target: T1, urease; conditions: read-out: IC50 (urease); Figure 1; ref Khan et al., 2024; cited from earlier work

T1 sequence (P07374 whole entry, looked up): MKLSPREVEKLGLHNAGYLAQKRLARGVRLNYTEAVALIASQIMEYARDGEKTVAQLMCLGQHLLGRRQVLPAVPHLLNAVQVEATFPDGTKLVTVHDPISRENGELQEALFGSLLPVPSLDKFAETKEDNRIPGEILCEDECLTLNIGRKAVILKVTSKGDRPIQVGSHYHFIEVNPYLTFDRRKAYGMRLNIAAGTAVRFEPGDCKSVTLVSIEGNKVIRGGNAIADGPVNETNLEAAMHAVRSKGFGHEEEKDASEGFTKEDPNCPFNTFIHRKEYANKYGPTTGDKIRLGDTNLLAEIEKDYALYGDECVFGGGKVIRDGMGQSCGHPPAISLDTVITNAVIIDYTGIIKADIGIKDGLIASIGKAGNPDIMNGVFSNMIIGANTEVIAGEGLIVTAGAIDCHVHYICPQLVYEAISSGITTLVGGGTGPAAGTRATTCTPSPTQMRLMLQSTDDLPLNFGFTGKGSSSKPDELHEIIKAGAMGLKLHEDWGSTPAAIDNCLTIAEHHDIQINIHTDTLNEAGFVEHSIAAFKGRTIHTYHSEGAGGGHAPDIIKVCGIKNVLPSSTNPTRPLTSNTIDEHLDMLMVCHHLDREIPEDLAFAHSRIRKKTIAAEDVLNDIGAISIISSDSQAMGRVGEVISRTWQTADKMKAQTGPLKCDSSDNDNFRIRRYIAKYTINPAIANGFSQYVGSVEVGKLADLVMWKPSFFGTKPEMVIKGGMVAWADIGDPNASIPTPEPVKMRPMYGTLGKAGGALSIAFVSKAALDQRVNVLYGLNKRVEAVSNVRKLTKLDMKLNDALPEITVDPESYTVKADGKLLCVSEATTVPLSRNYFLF

SMILES | IC50 (urease [1]) [µM] | melting point [°C] | type of inhibition against urease (urease [2]) | IC50 (urease [3]) [µM] | IC50 (urease [1]; indophenol method, urea substrate 100 mM, pH 8.0, triplicate, read-out: Urease inhibition: IC50 ± SEM) [µM]
O=C(CSC(=S)N1CCN(c2ncccc2[N+](=O)[O-])CC1)Nc1ccccc1 [Compound 5a, 2-Oxo-2-(phenylamino)ethyl 4-(3-nitropyridin-2-yl)piperazine-1-carbodithioate] | 18.7 ± 0.52 | 119 to 120 | – | – | –
O=C(CSC(=S)N1CCN(c2ncccc2[N+](=O)[O-])CC1)Nc1ccccc1Cl [Compound 5b, 2-((2-Chlorophenyl)amino)-2-oxoethyl 4-(3-nitropyridin-2-yl)piperazine-1-carbodithioate] | 41.03 ± 0.23 | 114 to 116 | – | – | –
O=C(CSC(=S)N1CCN(c2ncccc2[N+](=O)[O-])CC1)Nc1cccc(Cl)c1 [Compound 5c, 2-((3-Chlorophenyl)amino)-2-oxoethyl 4-(3-nitropyridin-2-yl)piperazine-1-carbodithioate] | 37.33 ± 0.19 | 121 to 122 | – | – | –
O=C(CSC(=S)N1CCN(c2ncccc2[N+](=O)[O-])CC1)Nc1ccc(Cl)cc1 [Compound 5d, 2-((4-Chlorophenyl)amino)-2-oxoethyl 4-(3-nitropyridin-2-yl)piperazine-1-carbodithioate] | 55.69 ± 0.2 | 143 to 144 | – | – | –
O=C(CSC(=S)N1CCN(c2ncccc2[N+](=O)[O-])CC1)Nc1cccc(Br)c1 [Compound 5e, 2-((3-Bromophenyl)amino)-2-oxoethyl 4-(3-nitropyridin-2-yl)piperazine-1-carbodithioate] | 32.53 ± 0.2 | 110 to 112 | – | – | –
O=C(CSC(=S)N1CCN(c2ncccc2[N+](=O)[O-])CC1)Nc1ccc(Br)cc1 [Compound 5f, 2-((4-Bromophenyl)amino)-2-oxoethyl 4-(3-nitropyridin-2-yl)piperazine-1-carbodithioate] | 21.3 ± 0.7 | 136 to 138 | – | – | –
O=C(CSC(=S)N1CCN(c2ncccc2[N+](=O)[O-])CC1)Nc1ccccc1[N+](=O)[O-] [Compound 5g, 2-((2-Nitrophenyl)amino)-2-oxoethyl 4-(3-nitropyridin-2-yl)piperazine-1-carbodithioate] | 16.84 ± 0.12 | 149 to 151 | – | – | –
O=C(CSC(=S)N1CCN(c2ncccc2[N+](=O)[O-])CC1)Nc1cccc([N+](=O)[O-])c1 [Compound 5h, 2-((3-Nitrophenyl)amino)-2-oxoethyl 4-(3-nitropyridin-2-yl)piperazine-1-carbodithioate] | 27 ± 2.15 | 174 to 175 | – | – | –
O=C(CSC(=S)N1CCN(c2ncccc2[N+](=O)[O-])CC1)Nc1ccc([N+](=O)[O-])cc1 [Compound 5i, 2-((4-Nitrophenyl)amino)-2-oxoethyl 4-(3-nitropyridin-2-yl)piperazine-1-carbodithioate] | 45.41 ± 0.23 | 168 to 169 | – | – | –
Cc1ccccc1NC(=O)CSC(=S)N1CCN(c2ncccc2[N+](=O)[O-])CC1 [Compound 5j, 2-Oxo-2-(o-tolylamino)ethyl 4-(3-nitropyridin-2-yl)piperazine-1-carbodithioate] | 5.16 ± 2.68 | – | mixed type of inhibition | – | –
Cc1cccc(NC(=O)CSC(=S)N2CCN(c3ncccc3[N+](=O)[O-])CC2)c1 [Compound 5k, 2-Oxo-2-(m-tolylamino)ethyl 4-(3-nitropyridin-2-yl)piperazine-1-carbodithioate] | 18.3 ± 0.17 | 101 to 103 | – | – | –
Cc1ccc(NC(=O)CSC(=S)N2CCN(c3ncccc3[N+](=O)[O-])CC2)cc1 [Compound 5l, 2-Oxo-2-(p-tolylamino)ethyl 4-(3-nitropyridin-2-yl)piperazine-1-carbodithioate] | 10.6 ± 0.36 | – | – | – | –
COc1ccccc1NC(=O)CSC(=S)N1CCN(c2ncccc2[N+](=O)[O-])CC1 [Compound 5m, 2-((2-Methoxyphenyl)amino)-2-oxoethyl 4-(3-nitropyridin-2-yl)piperazine-1-carbodithioate] | 8.17 ± 0.37 | – | – | – | –
COc1ccc(NC(=O)CSC(=S)N2CCN(c3ncccc3[N+](=O)[O-])CC2)cc1 [Compound 5n, 2-((4-Methoxyphenyl)amino)-2-oxoethyl 4-(3-nitropyridin-2-yl)piperazine-1-carbodithioate] | 17.8 ± 0.29 | 151 to 153 | – | – | –
O=C(Nc1ccccc1)c1ccc(CSC(=S)N2CCN(c3ncccc3[N+](=O)[O-])CC2)cc1 [Compound 7a, 4-(Phenylcarbamoyl)benzyl 4-(3-nitropyridin-2-yl)piperazine-1-carbodithioate] | 11.7 ± 0.26 | 142 to 143 | – | – | –
O=C(Nc1ccccc1Cl)c1ccc(CSC(=S)N2CCN(c3ncccc3[N+](=O)[O-])CC2)cc1 [Compound 7b, 4-((2-Chlorophenyl)carbamoyl)benzyl 4-(3-nitropyridin-2-yl)piperazine-1-carbodithioate] | 32.53 ± 0.31 | 109 to 110 | – | – | –
O=C(Nc1cccc(Cl)c1)c1ccc(CSC(=S)N2CCN(c3ncccc3[N+](=O)[O-])CC2)cc1 [Compound 7c, 4-((3-Chlorophenyl)carbamoyl)benzyl 4-(3-nitropyridin-2-yl)piperazine-1-carbodithioate] | 10.8 ± 0.52 | 140 to 141 | – | – | –
O=C(Nc1ccc(Cl)cc1)c1ccc(CSC(=S)N2CCN(c3ncccc3[N+](=O)[O-])CC2)cc1 [Compound 7d, 4-((4-Chlorophenyl)carbamoyl)benzyl 4-(3-nitropyridin-2-yl)piperazine-1-carbodithioate] | 43.11 ± 0.31 | 147 to 148 | – | – | –
O=C(Nc1cccc(Br)c1)c1ccc(CSC(=S)N2CCN(c3ncccc3[N+](=O)[O-])CC2)cc1 [Compound 7e, 4-((3-Bromophenyl)carbamoyl)benzyl 4-(3-nitropyridin-2-yl)piperazine-1-carbodithioate] | 16.5 ± 0.28 | 141 to 142 | – | – | –
O=C(Nc1ccc(Br)cc1)c1ccc(CSC(=S)N2CCN(c3ncccc3[N+](=O)[O-])CC2)cc1 [Compound 7f, 4-((4-Bromophenyl)carbamoyl)benzyl 4-(3-nitropyridin-2-yl)piperazine-1-carbodithioate] | 16.8 ± 0.29 | 162 to 164 | – | – | –
O=C(Nc1ccccc1[N+](=O)[O-])c1ccc(CSC(=S)N2CCN(c3ncccc3[N+](=O)[O-])CC2)cc1 [Compound 7g, 4-((2-Nitrophenyl)carbamoyl)benzyl 4-(3-nitropyridin-2-yl)piperazine-1-carbodithioate] | 56.89 ± 0.31 | 133 to 134 | – | – | –
O=C(Nc1cccc([N+](=O)[O-])c1)c1ccc(CSC(=S)N2CCN(c3ncccc3[N+](=O)[O-])CC2)cc1 [Compound 7h, 4-((3-Nitrophenyl)carbamoyl)benzyl 4-(3-nitropyridin-2-yl)piperazine-1-carbodithioate] | 47.94 ± 0.25 | 165 to 166 | – | – | –
O=C(Nc1ccc([N+](=O)[O-])cc1)c1ccc(CSC(=S)N2CCN(c3ncccc3[N+](=O)[O-])CC2)cc1 [Compound 7i, 4-((4-Nitrophenyl)carbamoyl)benzyl 4-(3-nitropyridin-2-yl)piperazine-1-carbodithioate] | 10.5 ± 0.34 | – | – | – | –
Cc1ccccc1NC(=O)c1ccc(CSC(=S)N2CCN(c3ncccc3[N+](=O)[O-])CC2)cc1 [Compound 7j, 4-(o-Tolylcarbamoyl)benzyl 4-(3-nitropyridin-2-yl)piperazine-1-carbodithioate] | 12.3 ± 0.27 | 113 to 115 | – | – | –
Cc1cccc(NC(=O)c2ccc(CSC(=S)N3CCN(c4ncccc4[N+](=O)[O-])CC3)cc2)c1 [Compound 7k, 4-(m-Tolylcarbamoyl)benzyl 4-(3-nitropyridin-2-yl)piperazine-1-carbodithioate] | 10.7 ± 0.26 | – | – | – | –
Cc1ccc(NC(=O)c2ccc(CSC(=S)N3CCN(c4ncccc4[N+](=O)[O-])CC3)cc2)cc1 [Compound 7l, 4-(P-tolylcarbamoyl)benzyl 4-(3-nitropyridin-2-yl)piperazine-1-carbodithioate] | 37.54 ± 0.26 | 158 to 160 | – | – | –
COc1ccccc1NC(=O)c1ccc(CSC(=S)N2CCN(c3ncccc3[N+](=O)[O-])CC2)cc1 [Compound 7m, 4-((2-Methoxyphenyl)carbamoyl)benzyl 4-(3-nitropyridin-2-yl)piperazine-1-carbodithioate] | 18.7 ± 0.27 | 166 to 167 | – | – | –
COc1ccc(NC(=O)c2ccc(CSC(=S)N3CCN(c4ncccc4[N+](=O)[O-])CC3)cc2)cc1 [Compound 7n, 4-((4-Methoxyphenyl)carbamoyl)benzyl 4-(3-nitropyridin-2-yl)piperazine-1-carbodithioate] | 24 ± 0.27 | 187 to 189 | – | – | –
CN(Cc1ccccc1)C(=S)SCc1ccccc1 [S-benzyl substituted carbodithioate] | – | – | – | 0.75 ± 0.04 | –
NC(N)=S [Thiourea, thiourea, reference compound] | – | – | – | – | 23 ± 0.03
